Test results: patent US20250177392A1, “BROAD SPECTRUM INHIBITORS OF CYTOMEGALOVIRUS” (MICROBIOTIX, INC., priority 2022, published 2025)

What was measured:
AD169^R (IE1 expression) = test: Western blot (immunoblot) of IE1 expression in AD169^R-infected cells; format: cell-based, Human cytomegalovirus
Method: The molecular weight markers and respective proteins are indicated.
FIGS. 12A and B are Western Blot assays showing that MBXC-4336 limits expression of IE1 in fibroblasts and epithelial cells. Total cell lysates from AD169^R-infected (MOI 0.2) NHDF (A) and ARPE-19 (B) cells pre-treated with DMSO, MBX-4336 (0, 1, 5, 10, or 20 μM), or heparin (50 μg/mL) collected at 48 hpi were subjected to Western blot analysis using a rabbit anti-IE-1 antibody (lanes 1-7) and an anti-GAPDH antibody (lanes 8-14) as a loading control. The molecular weight markers and respective proteins are indicated.
Total cell lysates from virus infected NHDF cells treated with compounds were created through SDS-lysis (10^4/100 uL of 1% SDS) of at least three rounds of heating at 95° C. for 3 min and vigorous agitation. The total cell lysates were resolved using an SDS-polyacrylamide gel (12.5%), transferred to a PVDF membrane using a semi-dry apparatus. The membrane was then incubated with 1% BSA/PBS for 1 hr at room temperature followed by incubation with anti-IE1 and anti-GAPDH. Finally, the respective secondary antibody conjugated with HRP was incubated with membrane followed by detection using ECL reagents (Millipore).
Next, inhibition of the expression of IE1 in AD169^R-infected cells treated with MBX-4992 was examined by immunoblot analysis (FIG. 4E). […] Collectively, these findings further indicate that MBX-4992 effectively prevents the expression of the immediate-early genes during a CMV infection.

AD169^R CMV virus [1] = test: Plaque reduction (dissemination) assay, prophylactic treatment; format: cell-based, Human cytomegalovirus
Method: (§1) FIG. 8A-H are fluorescence images (A & B) and graphs showing that NAPA compounds MBX-4992 and MBXC-4336 work in both prophylactic and therapeutic settings to inhibit HCMV infection. ARPE-19 cells (A to D) and NHDF cells (E and F) treated with increasing concentrations (0, 1, 5, 20, and 50 μM) of MBX-4992, MBXC-4336, or ganciclovir (2.5 μM) were infected with AD169^R (MOI 0.025) and analyzed for viral plaques of >5,000 μm^2 (C and E) and >10,000 μm^2 (D and F) based on GFP fluorescence. The representative images of plaques from AD169^R-infected ARPE-19 cells treated MBX-4992, MBXC-4336, ganciclovir are shown (A and B). MBX-4992, MBXC-4336 (G and H), and ganciclovir treatment at 48 hpi of AD169^R-infected ARPE-19 cells (MOI 0.025) were analyzed for virus plaques >5,000 μm^2 and >10,000 μm^2 at 10 dpi. The normalized plaque number was designated to be 100 based on plaques from DMSO treated cells. Statistical tests were performed using ordinary one-way ANOVA with multiple comparisons to DMSO treated cells as a control and a Dunnett's post-test; *, p<0.05; **, p<0.01; ***, p<0.001; ****, p<0.0001.
For the prophylactic treatment analysis, the plaque assay was performed on ARPE-19 and NHDF cells (4×10^4) in a 24-well plate. The cells were pretreated for 1 hour with either MBX-4992 or MBXC-4336 (1-50 μM), DMSO, or ganciclovir (2.5 μM) and followed by virus infection with AD169^R. Following a 2-hour incubation at 37° C., the inoculum was removed and cells were overlaid with 1% low melt sea agarose. Upon solidification of the agarose, MBX-4992, MBXC-4336, DMSO, or ganciclovir in media was added at the indicated concentration. The drugs were replaced every 3 days. The cells were examined using Brightfield and GFP fluorescence to quantify the number and size of virus plaques using a Celigo Cytometer at 10 dpi.
To address whether NAPA compounds can limit virus dissemination in epithelial cells, we analyzed the inhibitory properties of MBX-4992 and MBXC-4336 using a plaque reduction assay by designating a cluster of virus infected cells as a virus plaque (Parsons et al., Antivir. Res., 193:105124 (2021)) The results are shown in FIG. 8A-H.
To evaluate the prophylactic function of the NAPA compounds, ARPE-19 cells and NHDF cells treated with DMSO, MBX-4992, MBXC-4336 (0-50 μM), or ganciclovir (2.5 μM) were infected with AD169^R CMV virus and analyzed for virus plaques at 10 dpi based on GFP fluorescence (FIG. 8A-F). A cluster of virus infected cells was designated a viral plaque based on an average cluster area of 5,000 μm^2 or 10,000 μm^2 (FIG. 8A-B) using a Celigo cytometer.

AD169^R CMV virus [2] = test: Plaque reduction assay, therapeutic treatment at 48 hpi; format: cell-based, Human cytomegalovirus; settings: Human betaherpesvirus 5, AD169, ARPE-19, read-out: IC50 of plaque reduction (>5,000 μm^2 and >10,000 μm^2)
Method: as §1
For therapeutic treatment, ARPE-19 cells (4×10^4) were plated in a 24-well plate. […] The cells were examined using brightfield and YFP fluorescence to quantify the number and plaques using the Celigo Cytometer at 14. […]

[3] = Cytotoxicity (CC50) against Hela cells for 3 d; format: cell-based; settings: human
GpCMV 22122 = test: Herpes virus panel neutralization, GpCMV; format: cell-based, Guinea pig cytomegalovirus
Method: To determine the specificity of MBX-4992, additional neutralization experiments were conducted using a panel of herpes viruses performed in the presence of MBX-4992. […] Collectively, the antiviral activity of MBX-4992 is equivalent to that of GCV indicating specific inhibition of CMV replication.

[4] = Human betaherpesvirus 5, AD169, ARPE-19, read-out: IC50 of virus plaque reduction
[5] = Human betaherpesvirus 5, AD169, Fibroblast, read-out: IC50 of virus plaque reduction

SMILES: Cc1nc(Nc2cccc(NC(=O)c3ccco3)c2)cc(N2CCCCC2)n1 [MBXC-4336]
- IE1 expression by immunoblot (AD169^R (IE1 expression); NHDF and ARPE-19 cells, 48 hpi (FIG. 12)): effectiveness of MBXC-4336 was validated
- IC50 (AD169^R CMV virus [1]; [4]): 1.7 µM
- IC50 (AD169^R CMV virus [1]; [5]): 4 µM
- IC50 (AD169^R CMV virus [2]): ~9 µM

SMILES: Cc1nc(Nc2ccc(NC(=O)c3ccco3)cc2)cc(N2CCCC2)n1 [MBX-4992]
- CC50 at 3 d [3]: > 100 µM
- IE1 expression by immunoblot (AD169^R (IE1 expression); NHDF cells, 24 hpi, MBX-4992 1-10 μM, ganciclovir 5 μM, convallotoxin 0.01 μM): concentration dependent decrease in IE1 expression
- SI (GpCMV 22122): <4
- IC50 (GpCMV 22122; Caviid betaherpesvirus 2): > 30 µM
- IC50 (AD169^R CMV virus [1]; [4]): 6.5 µM
- IC50 (AD169^R CMV virus [1]; [5]): 12 µM
- IC50 (AD169^R CMV virus [2]): ~9 µM
